Experimental data from patent US6924298B2, “2-(3,5-Disubstituted-4-pyridyl)-4-(thienyl, thiazolyl or arylphenyl)-1,3-oxazoline compounds” (Dow AgroSciences LLC, priority 2000, dated 2005).
Read-outs that look alike come from different tables or passages of the source.

Key:
Format in all cases: in vivo
[1] = tested on: two-spotted spider mite (Tetranychus urticae); experiment: Insecticidal test for two-spotted spider mite, ovicide method on cotton leaf discs; settings: hatched larvae after 6 days; for pest or weed control: Tetranychus urticae, foliar, 144 h, read-out: SM: activity against two-spotted spider mite (% Control rating)
Experimental: Insecticidal Test for Two-Spotted Spider Mite (Tetranychus urticae) Ovicide Method: Ten adult female two-spotted spider mites were placed on eight 2.2 cm leaf discs of cotton leaf, allowed to oviposit over 24 hours, and thereafter removed. […] Discs were placed on an agar substrate and held at 24° C. and 90% RH for 6 days.

[2] = tested on: tobacco budworm (Heliothis virescens); experiment: Insecticidal test for tobacco budworm, treated cotton cotyledon leaf disc; settings: for pest or weed control at 400 ppm: Heliothis virescens, foliar, 120 h, read-out: TBW: activity at 400 ppm against tobacco budworm (% Control rating)
Experimental: (§1) Insecticidal Test for Tobacco Budworm (Heliothis virescens), Beet Armyworm (Spodoptera exigua), and Cabbage Looper (Trichoplusia ni).
(§2) To prepare the test solution, the test compound was formulated at 400 ppm in 7.5 mL of 2 acetone:1 tap water. 250 μL of the test solution was pipetted upon the surface of 8 mL of lepidopteran diet (modified Shorey) contained in each of five one-ounce plastic cups (one cup=1 replication). A second-instar beet armyworm was placed upon the treated diet in each cup once the solvent had air-dried. The solutions remaining after completing applications to the one-ounce cups were then used as leaf-dip solutions for 3.5 cm leaf discs cut from cabbage leaves and cotton cotyledons. Five discs of each type of plant were dipped until thoroughly coated into each rate of each compound (=5 replications of each treatment). After air-drying, the treated leaf discs were placed individually into one-ounce plastic cups. Each dried, treated cotton cotyledon disc was infested with a 2nd instar tobacco budworm larva, and each cabbage leaf disc was infested with a 2nd instar cabbage looper larva. Cups containing the treated substrates and larvae were capped and then held in a growth chamber at 25° C., 50-55% RH, and 14 hr light: 10 hr dark for 5 days.

[3] = tested on: beet armyworm (Spodoptera exigua); experiment: Insecticidal test for beet armyworm, treated lepidopteran diet; settings: for pest or weed control at 400 ppm: Spodoptera exigua, 120 h, read-out: BAW: activity at 400 ppm against beet armyworm (% Control rating)
Experimental: as §1, §2

[4] = tested on: cabbage looper (Trichoplusia ni); experiment: Insecticidal test for cabbage looper, treated cabbage leaf disc; settings: for pest or weed control at 400 ppm: Trichoplusia ni, foliar, 120 h, read-out: CL: activity at 400 ppm against cabbage looper (% Control rating)
Experimental: as §1, §2

[5] = tested on: cotton aphid (Aphis gossypii); experiment: Insecticidal test for cotton aphid, spray on infested squash cotyledons; settings: for pest or weed control at 50 ppm: Aphis gossypii, 72 h, read-out: CA: activity at 50 ppm against cotton aphid (% Control rating)
Experimental: Insecticidal Test for Cotton Aphid (Aphis gossypii)
To prepare spray solutions, 1 mg of each test compound was dissolved into 1 mL of a 90:10 acetone:ethanol solvent. This 1 mL of chemical solution was added to 19 mL of water containing 0.05% Tween 20 surfactant to produce a 50 ppm spray solution.
Squash cotyledons were infested with cotton aphid (all life stages)16-20 hours prior to application of spray solution. The solution was sprayed on both sides of each infested squash cotyledon (0.5 mL×2 each side) with a sweeping action until runoff. The plants were allowed to air dry and held for 3 days in a controlled room at 26° C. and 40% RH after which time the test was graded. Grading was by actual count using a dissecting microscope and comparison of test counts to the untreated check. Results are given in Tables 1-4 as percent control based on population reduction versus the untreated.

[6] = tested on: sweetpotato whitefly (Bemisia tabacia); experiment: Insecticidal test for sweetpotato whitefly, spray on cotton plants; settings: 312 h, 200 ppm spray, large nymphs counted after 13 days, read-out: WF: activity at 200 ppm against whitefly (% Control rating)
Experimental: Insecticidal Test for Sweetpotato Whitefly (Bemisia tabacia)
Four mg of each test compound was dissolved by adding 4 mL of a 90:10 acetone:ethanol solvent mixture to the vial containing the sample compound. This solution was added to 16 mL of water containing 0.05% Tween 20 surfactant to produce 20 mL of a 200 ppm spray solution.
Five-week-old cotton plants reared in a greenhouse were stripped of all foliage except for the two uppermost true leaves that were greater than 5 cm in diameter.
These plants were then placed into a laboratory colony of whiteflies for two days for oviposition by the colony females. All whiteflies were then removed from the test plants with pressurized air. The spray solution was then applied to the test plants with a hand-held syringe fitted with hollow cone nozzle. One mL of spray solution was applied to each leaf top and bottom for a total of 4 mL per plant. Four replications of each test compound utilized a total of 16 mL spray solution. Plants were air dried and then placed in a holding chamber (28° C. and 60% RH) for 13 days. Compound efficacy was evaluated by counting, under an illuminated magnifying glass, the number of large nymphs (3rd-4th instar) per leaf.
Percent control based on reduction of large nymphs of a test compound compared to solution-only (no test compound) sprayed plants is reported in Tables 1-4.

[7] = 400 ppm, leaf-dip cotton cotyledon disc, 2nd instar larvae, 5 days
[8] = 400 ppm, treated diet surface, second-instar larvae, 5 days
[9] = 400 ppm, leaf-dip cabbage leaf disc, 2nd instar larvae, 5 days
[10] = 50 ppm spray, squash cotyledons, all life stages, 3 days

Row | Compound | pest or weed control at 200 ppm [6] | pest or weed control [1] | pest or weed control at 400 ppm [2, 7] | pest or weed control at 400 ppm [3, 8] | pest or weed control at 400 ppm [4, 9] | pest or weed control at 50 ppm [5, 10] | also measured
1 | 4-[5-Methyl-4-(4′-trifluoromethoxybiphenyl)-4-yl)-4,5-dihydro-oxazol-2-yl]-3,5-dichloropyridines [Compound 47] |  |  |  |  |  |  | SM: activity at 2.5 ppm against two-spotted spider mite (% Control rating) [1]: A (90-100); TBW: activity at 400 ppm against tobacco budworm (% Control rating) [2, 7]: A (90-100); BAW: activity at 400 ppm against beet armyworm (% Control rating) [3, 8]: A (90-100); CL: activity at 400 ppm against cabbage looper (% Control rating) [4, 9]: A (90-100); CA: activity at 50 ppm against cotton aphid (% Control rating) [5, 10]: A (90-100)
2 | FC(F)(F)c1ccc(-c2ccc(C3COC(c4c(Cl)cncc4Cl)=N3)cc2)cc1 (stereo not drawn) [Compound 5] | < 50% | 90 to 100% | < 50% | 90 to 100% | 90 to 100% | 80 to 89% | 
3 | CCOc1ccc(-c2ccc(C3COC(c4c(Cl)cncc4Cl)=N3)cc2)cc1 (stereo not drawn) [Compound 12, 2-(3,5-dichloro-4-pyridinyl)-4-(4-(4-ethoxyphenyl)phenyl)oxazoline] | 80 to 89% | 90 to 100% | 80 to 89% | 90 to 100% | 60 to 69% | 80 to 89% | 
4 | Clc1ccc(-c2ccc(C3COC(c4c(Cl)cncc4Cl)=N3)cc2)cc1 (stereo not drawn) [Compound 16] |  | 90 to 100% |  |  |  |  | pest or weed control at 400 ppm [2]: 60 to 69%; pest or weed control at 400 ppm [3]: 90 to 100%; pest or weed control at 400 ppm [4]: 90 to 100%; pest or weed control at 50 ppm [5]: < 50%
5 | FC(F)(F)c1ccc(-c2ccc(C3COC(c4c(Cl)cncc4Cl)=N3)cc2)c(Cl)c1 (stereo not drawn) [Compound 17] | < 50% | 90 to 100% |  | 90 to 100% | 90 to 100% | 60 to 69% | 
6 | Cc1cccc(-c2ccc(C3COC(c4c(Cl)cncc4Cl)=N3)cc2)c1 (stereo not drawn) [Compound 27] |  | 80 to 89% |  |  |  |  | pest or weed control at 400 ppm [2]: < 50%; pest or weed control at 400 ppm [3]: 90 to 100%; pest or weed control at 400 ppm [4]: 90 to 100%; pest or weed control at 50 ppm [5]: 90 to 100%
7 | Fc1ccc(-c2ccc(C3COC(c4c(Cl)cncc4Cl)=N3)cc2)cc1C(F)(F)F (stereo not drawn) [Compound 29] |  | 70 to 79% | 80 to 89% | 80 to 89% | 90 to 100% | < 50% | 
8 | CC(C)c1ccc(-c2ccc(C3COC(c4c(Cl)cncc4Cl)=N3)cc2)cc1 (stereo not drawn) [Compound 30] | < 50% | 70 to 79% |  | 90 to 100% | 60 to 69% | < 50% | 
9 | Fc1c(-c2ccc(C3COC(c4c(Cl)cncc4Cl)=N3)cc2)cccc1C(F)(F)F (stereo not drawn) [Compound 31] |  | < 50% | 60 to 69% |  |  |  | 
10 | Fc1cc(C(F)(F)F)ccc1-c1ccc(C2COC(c3c(Cl)cncc3Cl)=N2)cc1 (stereo not drawn) [Compound 32] | 90 to 100% | 90 to 100% | 90 to 100% | 90 to 100% |  | 70 to 79% | 
11 | C[S+]([O-])c1ccc(-c2ccc(C3COC(c4c(Cl)cncc4Cl)=N3)cc2)cc1 (stereo not drawn) [Compound 36] | < 50% |  | 60 to 69% |  | 90 to 100% | < 50% | 
12 | Fc1cncc(F)c1C1=NC(c2ccc(-c3ccc(C(F)(F)F)cc3)cc2)CO1 (stereo not drawn) [Compound 39, 2-(3,5-difluoro-4-pyridinyl)-4-(4-(4-trifluoromethylphenyl)phenyl)-oxazoline] | < 50% | 90 to 100% |  | 80 to 89% | 90 to 100% | < 50% | 
13 | Cc1cc(-c2ccc(C(F)(F)F)cc2)ccc1C1COC(c2c(Cl)cncc2Cl)=N1 (stereo not drawn) [Compound 43, 2-(3,5-dichloro-4-pyridinyl)-4-(4-(4-trifluoromethylphenyl)-2-methylphenyl)-oxazoline] | < 50% | 80 to 89% | 90 to 100% | 90 to 100% | 90 to 100% | 80 to 89% | 
14 | Cc1cc(-c2ccc(OC(F)(F)F)cc2)ccc1C1COC(c2c(Cl)cncc2Cl)=N1 (stereo not drawn) [Compound 44, 2-(3,5-dichloro-4-pyridinyl)-4-(4-(4-trifluoromethoxyphenyl)-2-methylphenyl)-oxazoline] | 50 to 59% | 90 to 100% | 90 to 100% | 90 to 100% | 90 to 100% | 80 to 89% | 
15 | C[C@H]1OC(c2c(Cl)cncc2Cl)=N[C@@H]1c1ccc(-c2ccc(OC(F)(F)F)cc2)cc1 [Compound 48] | < 50% | 50 to 59% | 90 to 100% |  | 90 to 100% | 80 to 89% | 
